Residue numbers refer to the chain shown, from its start. Values belong to the compound of their own block, whether it stands above or below them. The source made the active and inactive calls. The rule behind the calls is not given here.
Tests used:
[1] = target: Lysosomal alpha-glucosidase (Homo sapiens) (UniProt P10253); experiment: Induction of alpha-glucosidase in human GM00372 cells using 4-methylumbelliferyl alpha-D-glucoside as substrate at 1.5 uM after 4 days by fluorescence spectrophotometry relative to untreated control; type: cell-based
[2] = target: T1, Lysosomal acid glucosylceramidase (Homo sapiens, UniProt P04062); experiment: Competitive inhibition of human beta-glucocerebrosidase by Lineweaver-Burk double reciprocal plot method
T1 sequence (P04062 whole entry): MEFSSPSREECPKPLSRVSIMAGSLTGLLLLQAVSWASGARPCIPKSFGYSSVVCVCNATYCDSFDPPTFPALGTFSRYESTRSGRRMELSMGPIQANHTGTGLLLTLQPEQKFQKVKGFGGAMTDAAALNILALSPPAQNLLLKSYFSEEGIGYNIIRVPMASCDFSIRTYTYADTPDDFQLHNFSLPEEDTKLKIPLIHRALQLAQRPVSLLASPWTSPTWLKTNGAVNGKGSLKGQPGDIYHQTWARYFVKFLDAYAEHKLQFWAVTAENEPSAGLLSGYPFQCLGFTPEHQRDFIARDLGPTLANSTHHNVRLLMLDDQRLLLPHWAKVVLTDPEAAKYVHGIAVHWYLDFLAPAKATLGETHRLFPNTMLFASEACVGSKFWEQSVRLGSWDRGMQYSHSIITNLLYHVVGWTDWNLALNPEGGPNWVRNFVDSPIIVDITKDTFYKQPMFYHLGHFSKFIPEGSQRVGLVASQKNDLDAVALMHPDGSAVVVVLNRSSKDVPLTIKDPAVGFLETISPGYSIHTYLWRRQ

[3] = tested on: T2, Lysosomal acid glucosylceramidase (Homo sapiens), P04062 [N409S]; experiment: Induction of beta-glucocerebrosidase N370S mutant in human GM00372 cells using 4-methylumbelliferyl-beta-D-glucopyranoside as substrate at 12.5 uM by fluorescence spectrophotometry relative to untreated control; type: cell-based
T2 sequence (whole entry): T1 sequence (P04062 whole entry) with N409S

[4] = target: T3, Lysosomal acid glucosylceramidase (Homo sapiens) (UniProt P04062); experiment: Inhibition of human beta-glucocerebrosidase at 20 uM by fluorescence spectrophotometry
T3 sequence (whole entry): T1 sequence (P04062 whole entry)

[5] = target: Lysosomal alpha-glucosidase (Homo sapiens) (UniProt P10253); experiment: Induction of alpha-glucosidase in human GM00372 cells using 4-methylumbelliferyl alpha-D-glucoside as substrate at <6.25 uM after 4 days by fluorescence spectrophotometry relative to untreated control; type: cell-based
[6] = tested on: T2, Lysosomal acid glucosylceramidase (Homo sapiens), P04062 [N409S]; experiment: Induction of beta-glucocerebrosidase N370S mutant in human GM00372 cells using 4-methylumbelliferyl-beta-D-glucopyranoside as substrate at 625 nM by fluorescence spectrophotometry relative to untreated control; type: cell-based
[7] = tested on: T2, Lysosomal acid glucosylceramidase (Homo sapiens), P04062 [N409S]; experiment: Induction of beta-glucocerebrosidase N370S mutant in human GM00372 cells using 4-methylumbelliferyl-beta-D-glucopyranoside as substrate at 6.2 uM by fluorescence spectrophotometry relative to untreated control; type: cell-based
[8] = target: Lysosomal alpha-glucosidase (Homo sapiens) (UniProt P10253); experiment: Induction of alpha-glucosidase in human GM00372 cells using 4-methylumbelliferyl alpha-D-glucoside as substrate at 25 uM after 4 days by fluorescence spectrophotometry relative to untreated control; type: cell-based
[9] = tested on: T2, Lysosomal acid glucosylceramidase (Homo sapiens), P04062 [N409S]; experiment: Induction of beta-glucocerebrosidase N370S mutant in human GM00372 cells using 4-methylumbelliferyl-beta-D-glucopyranoside as substrate at 3.1 uM by fluorescence spectrophotometry relative to untreated control; type: cell-based
[10] = tested on: T2, Lysosomal acid glucosylceramidase (Homo sapiens), P04062 [N409S]; experiment: Induction of beta-glucocerebrosidase N370S mutant in human GM00372 cells using 4-methylumbelliferyl-beta-D-glucopyranoside as substrate at 25 uM by fluorescence spectrophotometry relative to untreated control; type: cell-based
[11] = target: T1, Lysosomal acid glucosylceramidase; experiment: Non-competitive inhibition of human beta-glucocerebrosidase by Lineweaver-Burk double reciprocal plot method
[12] = tested on: T2, Lysosomal acid glucosylceramidase (Homo sapiens), P04062 [N409S]; experiment: Induction of beta-glucocerebrosidase N370S mutant in human GM00372 cells using 4-methylumbelliferyl-beta-D-glucopyranoside as substrate at 1.5 uM by fluorescence spectrophotometry relative to untreated control; type: cell-based
[13] = target: Lysosomal alpha-glucosidase (Homo sapiens) (UniProt P10253); experiment: Induction of alpha-glucosidase in human GM00372 cells using 4-methylumbelliferyl alpha-D-glucoside as substrate at 20 to 100 uM after 4 days by fluorescence spectrophotometry relative to untreated control; type: cell-based
[14] = tested on: T2, Lysosomal acid glucosylceramidase (Homo sapiens), P04062 [N409S]; experiment: Induction of beta-glucocerebrosidase N370S mutant trafficking from endoplasmic reticulum to lysosome in human GM00372 cells at 5 uM by immunocytochemistry; type: cell-based
[15] = target: Lysosomal alpha-glucosidase (Homo sapiens) (UniProt P10253); experiment: Induction of alpha-glucosidase in human GM00372 cells using 4-methylumbelliferyl alpha-D-glucoside as substrate at 6.2 uM after 4 days by fluorescence spectrophotometry relative to untreated control; type: cell-based
[16] = tested on: T2, Lysosomal acid glucosylceramidase (Homo sapiens), P04062 [N409S]; experiment: Induction of beta-glucocerebrosidase N370S mutant in human GM00372 cells using 4-methylumbelliferyl-beta-D-glucopyranoside as substrate at 50 uM by fluorescence spectrophotometry relative to untreated control; type: cell-based

- fold change (FC) [1]: 0.3
- Ki [2]: 400 nM
- fold change (FC) [3]: 1.9
- inhibition [4]: Active
- Activity [5]: 60%
Structure (SMILES): O=C(CC1c2ccccc2-c2ccccc21)NCCCCN1C[C@H](O)[C@@H](O)[C@H](O)[C@H]1CO

- fold change (FC) [1]: 0.4
- Ki [2]: 400 nM
- inhibition [4]: Active
- Activity [5]: 60%
- fold change (FC) [6]: 1.8
Structure (SMILES): O=C(CC(c1ccccc1)(c1ccccc1)c1ccccc1)NCCCCN1C[C@H](O)[C@@H](O)[C@H](O)[C@H]1CO

- fold change (FC) [7]: 2.5
- fold change (FC) [8]: 1.2
Structure (SMILES): O=C(CC(c1ccccc1)(c1ccccc1)c1ccccc1)NCCCCN1C[C@@H](O)[C@H](O)[C@H]1CO

- fold change (FC) [9]: 1.4
Structure (SMILES): CC[C@@H]1[C@@H](O)[C@H](O)[C@@H](CO)N1CCCCNC(=O)CC(c1ccccc1)(c1ccccc1)c1ccccc1

- fold change (FC) [10]: 1.5
- inhibition [4]: Active
- Ki [11]: 1100 nM
Structure (SMILES): COc1ccc2c(c1)C(CC(=O)NCCCCN1C[C@H](O)[C@@H](O)[C@H](O)[C@H]1CO)CC2 (some centres not stated)

- fold change (FC) [12]: 2.2
- Activity [13]: < 10%
- Ki [2]: 4100 nM
- Activity [14]: Active
Structure (SMILES): O=C(CC(c1ccccc1)(c1ccccc1)c1ccccc1)NCCCCN1[C@H](CO)[C@@H](O)[C@H](O)[C@H]1CO

- fold change (FC) [7]: 1.7
- Activity [13]: < 10%
Structure (SMILES): O=C(CC1c2ccccc2-c2ccccc21)NCCCCN1[C@H](CO)[C@@H](O)[C@H](O)[C@H]1CO

- Ki [2]: 1000 nM
- inhibition [4]: Active
Structure (SMILES): O=C(NCCCCN1C[C@H](O)[C@@H](O)[C@H](O)[C@H]1CO)C1CCc2ccccc2C1 (some centres not stated)

- fold change (FC) [3]: 1.6
Structure (SMILES): CC[C@@H]1[C@@H](O)[C@H](O)[C@@H](CO)N1CCCCNC(=O)CC1c2ccccc2-c2ccccc21

- Activity [13]: < 10%
- fold change (FC) [16]: 1.8
Structure (SMILES): O=C(CC1c2ccccc2-c2ccccc21)NCCCCN1C[C@@H](O)[C@H](O)[C@H]1CO

Continued, compound first:

Structure (SMILES): O=C(CCC1CCCC1)NCCCCN1C[C@H](O)[C@@H](O)[C@H](O)[C@H]1CO
- inhibition [4]: < 60%

Structure (SMILES): O=C(Cc1cc(C(F)(F)F)cc(C(F)(F)F)c1)NCCCCN1C[C@H](O)[C@@H](O)[C@H](O)[C@H]1CO
- fold change (FC) [1]: 0.4
- Ki [2]: 71 nM
- fold change (FC) [3]: 1.75
- inhibition [4]: Active
- Activity [5]: 60%

Structure (SMILES): O=C(NCCCCN1C[C@H](O)[C@@H](O)[C@H](O)[C@H]1CO)C1CCC1
- inhibition [4]: < 60%

Structure (SMILES): O=C(CC1CCCC1)NCCCCN1C[C@H](O)[C@@H](O)[C@H](O)[C@H]1CO
- inhibition [4]: < 60%

Structure (SMILES): O=C(NCCCCN1C[C@H](O)[C@@H](O)[C@H](O)[C@H]1CO)C1CCCC1
- inhibition [4]: < 60%

Structure (SMILES): O=C(NCCCCN1C[C@H](O)[C@@H](O)[C@H](O)[C@H]1CO)C1CC1
- inhibition [4]: < 60%

Structure (SMILES): O=C(COc1ccc(Cl)c(Cl)c1)NCCCCN1C[C@H](O)[C@@H](O)[C@H](O)[C@H]1CO
- Ki [2]: 3200 nM
- inhibition [4]: Active

Structure (SMILES): O=C(CC1CCCCC1)NCCCCN1C[C@H](O)[C@@H](O)[C@H](O)[C@H]1CO
- inhibition [4]: < 60%

Structure (SMILES): CCCCCCCCCN1C[C@H](O)[C@@H](O)[C@H](O)[C@H]1CO
- fold change (FC) [15]: 0.4
- Activity [5]: 60%

— ChEMBL document CHEMBL2413029, “Rapid modifications of N-substitution in iminosugars: development of new β-glucocerebrosidase inhibitors and pharmacological chaperones for Gaucher disease” (Bioorg Med Chem, 2013)
